What was measured:
Assay type in all cases: in vivo
[1] = test system: Zymoseptoria tritici strain Zt 61; experiment: In planta preventive efficacy on wheat cv. Alixan against Zymoseptoria tritici strain Zt 61; parameters: fungicide efficacy: concentration or dose not given beside the values; conditions: for Disease Severity Intensity: % of length of 2nd leaf blade, preventive 24 h; for AUDPC: control 1194.9
Procedure: (§1) A series of experiments were conducted to evaluate the efficacy of flumetylsulforim (ADF-16) for treating different strains of Zymoseptoria tritici in comparison with commercially available fungicides. Table 1 describes the Z. tritici strains used in this study and Table 2 describes the fungicides used in this study.
(§2) Winter wheat plants cv. Alixan (Limagrain) at the BBCH 12 growth stage were treated preventively with sterile distilled water (control), ADF-16, penthiopyrad, metconazole or tebuconazole at the rates described in Table 2 with a hand sprayer at 2 bars.
(§3) After treatment, wheat plants were left to dry at room temperature for 1 hour and then placed in a climatic chamber: temperature of 24 °C day/18 °C night-photoperiod of 16 h light/8 h dark and a relative humidity of 65%.
(§4) Untreated or treated whole wheat plants were inoculated 24-hours post-treatment with a calibrated pycnospore suspension of Z. tritici strains Zt StA, Zt 61, Zt 99, Zt 20, Zt 19-52, and Zt 38-02. Three replicates (pots) of 6 wheat plants each were used for each condition tested.
(§5) After inoculation, pots were transferred in a climatic chamber: temperature of 20 °C day/17 °C night—photoperiod of 16 h light/8 h dark and controlled relative humidity.
(§6) Disease assessments were carried out at 15 days post inoculation (dpi), 21 dpi and 28 dpi by measuring the length of the necrosis on the second leaf blade. The intensity of infection was then determined as a percentage of the total length of 2nd leaf blade.
(§7) The fungicide efficacies were determined from the Area Under the Disease Progress Curve (AUDPC) values and expressed as a percentage of the untreated control.
(§8) The AUDPC is a quantitative measure of disease intensity over time. The most commonly used method for estimating the AUDPC, the trapezoidal method, is performed by multiplying the average disease intensity between each pair of adjacent timepoints by the corresponding time interval and this for each time interval. The AUDPC is determined with the following formula by adding all of the trapezoids:
(§9) [formula] • yi=disease severity at the ith observation • ti=time (days) at the ith observation • N=total number of observations

[2] = test system: Zymoseptoria tritici strain Zt 99; experiment: In planta preventive efficacy on wheat cv. Alixan against Zymoseptoria tritici strain Zt 99; conditions: for Disease Severity Intensity: % of length of 2nd leaf blade, preventive 24 h; for AUDPC: control 1352.9
Procedure: as §1, §2, §3, §4, §5, §6, §7, §8, §9

[3] = test system: Zymoseptoria tritici strain Zt 38-02; experiment: In planta preventive efficacy on wheat cv. Alixan against Zymoseptoria tritici strain Zt 38-02; conditions: for Disease Severity Intensity: % of length of 2nd leaf blade, preventive 24 h; for AUDPC: control 1261.4
Procedure: as §1, §2, §3, §4, §5, §6, §7, §8, §9

[4] = test system: Zymoseptoria tritici strain Zt StA; experiment: In planta preventive efficacy on wheat cv. Alixan against Zymoseptoria tritici strain Zt StA (control strain, sensitive); conditions: for Disease Severity Intensity: % of length of 2nd leaf blade, preventive 24 h; for AUDPC: control 781.6
Procedure: as §1, §2, §3, §4, §5, §6, §7, §8, §9

[5] = test system: Zymoseptoria tritici strain Zt 19-52; experiment: In planta preventive efficacy on wheat cv. Alixan against Zymoseptoria tritici strain Zt 19-52; conditions: % of length of 2nd leaf blade, preventive 24 h
Procedure: as §1, §2, §3, §4, §5, §6, §7, §8, §9

[6] = test system: Zymoseptoria tritici strain Zt 20; experiment: In planta preventive efficacy on wheat cv. Alixan against Zymoseptoria tritici strain Zt 20; conditions: % of length of 2nd leaf blade, preventive 24 h
Procedure: as §1, §2, §3, §4, §5, §6, §7, §8, §9

[7] = 15 dpi, rate N (g a.i./ha): ADF-16 100, penthiopyrad 200, metconazole 90, tebuconazole 250, control also no disease
[8] = 15 dpi, rate N/2.5 (g a.i./ha): ADF-16 40, penthiopyrad 80, metconazole 36, tebuconazole 100, control also no disease
[9] = rate N (g a.i./ha): ADF-16 100, penthiopyrad 200, metconazole 90, tebuconazole 250
[10] = rate N/2.5 (g a.i./ha): ADF-16 40, penthiopyrad 80, metconazole 36, tebuconazole 100

CC(C)(C)C(O)(CCc1ccc(Cl)cc1)Cn1cncn1 (stereo not drawn) [Tebuconazole]
Disease Severity Intensity [1, 7]: No disease
Disease Severity Intensity [1, 8]: No disease
Disease Severity Intensity ([1]; 21 dpi, rate N (g a.i./ha): ADF-16 100, penthiopyrad 200, metconazole 90, tebuconazole 250, control 63.3): 1.5 +/− 0.9d %
Disease Severity Intensity ([1]; 21 dpi, rate N/2.5 (g a.i./ha): ADF-16 40, penthiopyrad 80, metconazole 36, tebuconazole 100, control 63.3): 11.8 +/− 3.6c %
Disease Severity Intensity ([1]; 28 dpi, rate N (g a.i./ha): ADF-16 100, penthiopyrad 200, metconazole 90, tebuconazole 250, control 88.1): 30.7 +/− 5.3d %
Disease Severity Intensity ([1]; 28 dpi, rate N/2.5 (g a.i./ha): ADF-16 40, penthiopyrad 80, metconazole 36, tebuconazole 100, control 88.1): 54.3 +/− 6.2c %
fungicide efficacy ([1]; higher application rates (N)): ≥ 85%
fungicide efficacy ([1]; lower application rates (N/2.5)): ≤ 70%
Efficacy (from AUDPC, percentage of the untreated control) [1, 9]: 89.5%
AUDPC [1, 9]: 125.1 ± 46.8 days
Efficacy (from AUDPC, percentage of the untreated control) [1, 10]: 70.3%
AUDPC [1, 10]: 354.9 +/− 103.8bc
Disease Severity Intensity ([2]; 15 dpi, rate N (g a.i./ha): ADF-16 100, penthiopyrad 200, metconazole 90, tebuconazole 250, control 47.9): 0.0 +/− 0.0d %
Disease Severity Intensity ([2]; 15 dpi, rate N/2.5 (g a.i./ha): ADF-16 40, penthiopyrad 80, metconazole 36, tebuconazole 100, control 47.9): 0.0 +/− 0.0d %
Disease Severity Intensity ([2]; 21 dpi, rate N (g a.i./ha): ADF-16 100, penthiopyrad 200, metconazole 90, tebuconazole 250, control 81.0): 1.5 +/− 0.8f %
Disease Severity Intensity ([2]; 21 dpi, rate N/2.5 (g a.i./ha): ADF-16 40, penthiopyrad 80, metconazole 36, tebuconazole 100, control 81.0): 12.1 +/− 1.7e %
Disease Severity Intensity ([2]; 28 dpi, rate N (g a.i./ha): ADF-16 100, penthiopyrad 200, metconazole 90, tebuconazole 250, control 92.2): 12.8 +/− 2.5d %
Disease Severity Intensity ([2]; 28 dpi, rate N/2.5 (g a.i./ha): ADF-16 40, penthiopyrad 80, metconazole 36, tebuconazole 100, control 92.2): 58.7 +/− 4.6c %
Efficacy (from AUDPC, percentage of the untreated control) [2, 9]: 96.0%
AUDPC [2, 9]: 54.0 ± 3.3 g
Efficacy (from AUDPC, percentage of the untreated control) [2, 10]: 79.0%
AUDPC [2, 10]: 283.9 +/− 30.0f^
Disease Severity Intensity ([3]; 15 dpi, rate N (g a.i./ha): ADF-16 100, penthiopyrad 200, metconazole 90, tebuconazole 250, control 36.0): 0.0 +/− 0.0b %
Disease Severity Intensity ([3]; 15 dpi, rate N/2.5 (g a.i./ha): ADF-16 40, penthiopyrad 80, metconazole 36, tebuconazole 100, control 36.0): 0.0 +/− 0.0b %
Disease Severity Intensity ([3]; 21 dpi, rate N (g a.i./ha): ADF-16 100, penthiopyrad 200, metconazole 90, tebuconazole 250, control 84.3): 9.3 +/− 1.9e %
Disease Severity Intensity ([3]; 21 dpi, rate N/2.5 (g a.i./ha): ADF-16 40, penthiopyrad 80, metconazole 36, tebuconazole 100, control 84.3): 62.2 +/− 4.5bc %
Disease Severity Intensity ([3]; 28 dpi, rate N (g a.i./ha): ADF-16 100, penthiopyrad 200, metconazole 90, tebuconazole 250, control 95.7): 45.1 +/− 4.0d %
Disease Severity Intensity ([3]; 28 dpi, rate N/2.5 (g a.i./ha): ADF-16 40, penthiopyrad 80, metconazole 36, tebuconazole 100, control 95.7): 93.3 +/− 0.9ab %
Efficacy (from AUDPC, percentage of the untreated control) [3, 9]: 82.7%
AUDPC [3, 9]: 218.1 ± 3.5 days
Efficacy (from AUDPC, percentage of the untreated control) [3, 10]: 42.3%
AUDPC [3, 10]: 728.1 +/− 31.6b
Disease Severity Intensity [4, 7]: No disease
Disease Severity Intensity [4, 8]: No disease
Disease Severity Intensity ([4]; 21 dpi, rate N (g a.i./ha): ADF-16 100, penthiopyrad 200, metconazole 90, tebuconazole 250, control 36.5): 0.0 +/− 0.0b %
Disease Severity Intensity ([4]; 21 dpi, rate N/2.5 (g a.i./ha): ADF-16 40, penthiopyrad 80, metconazole 36, tebuconazole 100, control 36.5): 0.0 +/− 0.0b %
Disease Severity Intensity ([4]; 28 dpi, rate N (g a.i./ha): ADF-16 100, penthiopyrad 200, metconazole 90, tebuconazole 250, control 77.4): 0.0 +/− 0.0b %
Disease Severity Intensity ([4]; 28 dpi, rate N/2.5 (g a.i./ha): ADF-16 40, penthiopyrad 80, metconazole 36, tebuconazole 100, control 77.4): 0.0 +/− 0.0b %
Efficacy (from AUDPC, percentage of the untreated control) [4, 9]: 100%
AUDPC [4, 9]: 0.0 +/− 0.0b
Efficacy (from AUDPC, percentage of the untreated control) [4, 10]: 100%
AUDPC [4, 10]: 0.0 +/− 0.0b
Disease Severity Intensity ([5]; 15 dpi, rate N (g a.i./ha): ADF-16 100, penthiopyrad 200, metconazole 90, tebuconazole 250, control 22.0): 0.0 +/− 0.0b %
Disease Severity Intensity ([5]; 15 dpi, rate N/2.5 (g a.i./ha): ADF-16 40, penthiopyrad 80, metconazole 36, tebuconazole 100, control 22.0): 0.0 +/− 0.0b %
Disease Severity Intensity ([5]; 21 dpi, rate N (g a.i./ha): ADF-16 100, penthiopyrad 200, metconazole 90, tebuconazole 250, control 81.7): 0.2 +/− 0.2c %
Disease Severity Intensity ([5]; 21 dpi, rate N/2.5 (g a.i./ha): ADF-16 40, penthiopyrad 80, metconazole 36, tebuconazole 100, control 81.7): 0.7 +/− 0.4bc %
Disease Severity Intensity ([5]; 28 dpi, rate N (g a.i./ha): ADF-16 100, penthiopyrad 200, metconazole 90, tebuconazole 250, control 91.0): 7.9 +/− 2.2cd %
Disease Severity Intensity ([5]; 28 dpi, rate N/2.5 (g a.i./ha): ADF-16 40, penthiopyrad 80, metconazole 36, tebuconazole 100, control 91.0): 13.1 +/− 2.3c %
Disease Severity Intensity [6, 7]: No disease
Disease Severity Intensity [6, 8]: No disease
Disease Severity Intensity ([6]; 21 dpi, rate N (g a.i./ha): ADF-16 100, penthiopyrad 200, metconazole 90, tebuconazole 250, control 77.2): 0.6 +/− 0.5de %
Disease Severity Intensity ([6]; 21 dpi, rate N/2.5 (g a.i./ha): ADF-16 40, penthiopyrad 80, metconazole 36, tebuconazole 100, control 77.2): 4.6 +/− 1.3c %
Disease Severity Intensity ([6]; 28 dpi, rate N (g a.i./ha): ADF-16 100, penthiopyrad 200, metconazole 90, tebuconazole 250, control 95.5): 17.1 +/− 1.9e %
Disease Severity Intensity ([6]; 28 dpi, rate N/2.5 (g a.i./ha): ADF-16 40, penthiopyrad 80, metconazole 36, tebuconazole 100, control 95.5): 54.8 +/− 3.7c %
